Here are results for 5 compounds from ChEMBL document CHEMBL3525969 (Drug Metab Dispos, 2011).

Data set [1] has as its target T1, CYP3A5 (Homo sapiens, UniProt P20815). Put plainly: Inhibition of human His-tagged CYP3A5 expressed in Escherichia coli TOPP3 using BFC as substrate assessed as residual activity by fluorescence assay in presence of cytochrome b5. The format is ADME. Particulars: probe BFC; call rule not given here.
Data set [2] deals with T2, Cytochrome P450 3A4 (Homo sapiens, UniProt P08684). As to the kind of experiment: Inhibition of His-tagged CYP3A4 (unknown origin) expressed in Escherichia coli TOPP3 using BFC as substrate after 15 mins by fluorescence assay in presence of NADPH. The format is ADME. Particulars: 0.25 h.
T2 sequence (P08684 whole entry): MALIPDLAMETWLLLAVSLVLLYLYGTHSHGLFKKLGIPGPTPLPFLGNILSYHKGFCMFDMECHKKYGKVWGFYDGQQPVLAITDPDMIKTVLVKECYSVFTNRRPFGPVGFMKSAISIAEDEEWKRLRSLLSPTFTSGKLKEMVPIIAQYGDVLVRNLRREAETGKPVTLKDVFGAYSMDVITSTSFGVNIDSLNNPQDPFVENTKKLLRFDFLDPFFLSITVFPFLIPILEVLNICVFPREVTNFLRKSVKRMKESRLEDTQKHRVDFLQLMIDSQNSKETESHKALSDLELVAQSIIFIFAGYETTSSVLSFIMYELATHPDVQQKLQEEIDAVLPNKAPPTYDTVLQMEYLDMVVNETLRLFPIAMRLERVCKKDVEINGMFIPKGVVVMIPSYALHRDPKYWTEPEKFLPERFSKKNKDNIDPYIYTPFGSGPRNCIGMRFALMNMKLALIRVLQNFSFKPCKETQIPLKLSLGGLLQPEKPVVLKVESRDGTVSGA
The target of data set [3] is T2, Cytochrome P450 3A4. As to the kind of experiment: Inhibition of His-tagged CYP3A4 (unknown origin) expressed in Escherichia coli TOPP3 using BFC as substrate after 15 mins by fluorescence assay in presence of NADPH and cytochrome b5. The format is ADME. Particulars: 0.25 h.
Data set [4] is described as follows: Cmax in human. The format is ADME, organism-based. Particulars: in vivo.
In data set [5] the target is T3, Cytochrome P450 2B6 (Homo sapiens, UniProt P20813).
T3 sequence (P20813 whole entry): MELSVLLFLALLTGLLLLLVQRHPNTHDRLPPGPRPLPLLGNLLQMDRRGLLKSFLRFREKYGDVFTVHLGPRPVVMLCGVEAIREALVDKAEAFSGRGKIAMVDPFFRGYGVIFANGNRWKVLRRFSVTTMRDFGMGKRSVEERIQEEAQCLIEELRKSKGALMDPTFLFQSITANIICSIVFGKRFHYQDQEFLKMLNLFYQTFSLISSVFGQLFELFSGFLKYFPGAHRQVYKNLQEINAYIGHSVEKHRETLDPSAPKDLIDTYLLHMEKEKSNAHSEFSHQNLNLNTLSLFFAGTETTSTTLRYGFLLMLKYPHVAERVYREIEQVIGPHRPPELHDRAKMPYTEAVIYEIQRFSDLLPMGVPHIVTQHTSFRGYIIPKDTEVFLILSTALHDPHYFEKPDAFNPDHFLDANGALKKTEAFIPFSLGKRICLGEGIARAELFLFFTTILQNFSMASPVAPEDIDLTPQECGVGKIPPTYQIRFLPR
As to the kind of experiment: Inhibition of human His-tagged CYP2B6 expressed in Escherichia coli TOPP3 using 7-ethoxy-4-(trifluoromethyl)coumarin as substrate after 15 mins by fluorescence assay in presence of NADPH. Particulars: 0.25 h. The format is ADME.

For data set [6], the target named is T3, Cytochrome P450 2B6. Put plainly: Inhibition of human His-tagged CYP2B6 expressed in Escherichia coli TOPP3 using 7-ethoxy-4-(trifluoromethyl)coumarin as substrate after 15 mins by fluorescence assay in presence of NADPH and cytochrome b5. The format is ADME. Particulars: 0.25 h.
The target of data set [7] is T4, Cytochrome P450 2D6 (Homo sapiens, UniProt P10635). Put plainly: Inhibition of human His-tagged CYP2D6 expressed in Escherichia coli TOPP3 using 7-ethoxy-4-(trifluoromethyl)coumarin as substrate after 15 mins by fluorescence assay in presence of NADPH. The following applies: 0.25 h. The format is ADME.
T4 sequence (P10635 whole entry): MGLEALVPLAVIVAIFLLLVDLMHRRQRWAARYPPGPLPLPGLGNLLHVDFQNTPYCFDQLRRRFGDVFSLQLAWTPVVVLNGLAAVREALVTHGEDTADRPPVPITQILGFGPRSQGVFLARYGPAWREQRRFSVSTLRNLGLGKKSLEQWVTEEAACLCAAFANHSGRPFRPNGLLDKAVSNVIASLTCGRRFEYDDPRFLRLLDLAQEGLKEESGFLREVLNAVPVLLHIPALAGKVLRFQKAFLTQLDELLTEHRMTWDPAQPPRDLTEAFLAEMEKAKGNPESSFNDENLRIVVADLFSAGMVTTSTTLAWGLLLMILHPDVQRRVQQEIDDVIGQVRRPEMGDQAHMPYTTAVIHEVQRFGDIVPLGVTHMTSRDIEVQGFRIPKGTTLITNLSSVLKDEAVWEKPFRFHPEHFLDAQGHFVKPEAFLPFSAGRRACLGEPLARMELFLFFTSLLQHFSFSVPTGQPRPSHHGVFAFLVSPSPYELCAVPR
The target in data set [8] is T4, Cytochrome P450 2D6. As to the kind of experiment: Inhibition of human His-tagged CYP2D6 expressed in Escherichia coli TOPP3 using 7-ethoxy-4-(trifluoromethyl)coumarin as substrate after 15 mins by fluorescence assay in presence of NADPH and cytochrome b5. The format is ADME. Particulars: 0.25 h.
In data set [9] the target is T5, Cytochrome P450 3A5 (Homo sapiens, UniProt P20815). Put plainly: Inhibition of human His-tagged CYP3A5 expressed in Escherichia coli TOPP3 using BFC as substrate after 15 mins by fluorescence assay in presence of NADPH. The format is ADME. The following applies: 0.25 h.
T5 sequence (P20815 whole entry): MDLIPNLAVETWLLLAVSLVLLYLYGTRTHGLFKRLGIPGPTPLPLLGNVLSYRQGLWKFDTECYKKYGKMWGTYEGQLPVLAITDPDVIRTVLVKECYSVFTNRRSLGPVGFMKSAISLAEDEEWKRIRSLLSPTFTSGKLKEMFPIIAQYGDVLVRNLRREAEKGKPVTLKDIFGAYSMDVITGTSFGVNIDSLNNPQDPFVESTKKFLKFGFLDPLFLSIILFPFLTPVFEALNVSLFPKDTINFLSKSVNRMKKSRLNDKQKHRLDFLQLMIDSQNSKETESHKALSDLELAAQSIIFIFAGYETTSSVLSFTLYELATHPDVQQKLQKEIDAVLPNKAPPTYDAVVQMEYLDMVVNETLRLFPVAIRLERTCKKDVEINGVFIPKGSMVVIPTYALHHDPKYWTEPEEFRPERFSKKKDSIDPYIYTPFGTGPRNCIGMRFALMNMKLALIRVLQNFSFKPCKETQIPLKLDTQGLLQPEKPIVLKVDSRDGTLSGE
For data set [10], the target named is T5, Cytochrome P450 3A5. Put plainly: Inhibition of human His-tagged CYP3A5 expressed in Escherichia coli TOPP3 using BFC as substrate after 15 mins by fluorescence assay in presence of NADPH and cytochrome b5. Particulars: 0.25 h. The format is ADME.
For data set [11], the target named is T2, Cytochrome P450 3A4. As to the kind of experiment: Inhibition of human His-tagged CYP3A4 expressed in Escherichia coli TOPP3 using BFC as substrate after 15 mins by fluorescence assay in presence of NADPH and cytochrome b5. The format is ADME. Particulars: 0.25 h.
The target in data set [12] is T2, Cytochrome P450 3A4. Put plainly: Inhibition of human His-tagged CYP3A4 expressed in Escherichia coli TOPP3 using BFC as substrate at 10 to 100 uM by fluorescence assay in presence of NADPH and cytochrome b5. The following applies: TDE = time-dependent effect. The format is ADME.
In data set [13] the target is T6, CYP3A4 (Homo sapiens, UniProt P08684). As to the kind of experiment: Inhibition of human His-tagged CYP3A4 expressed in Escherichia coli TOPP3 using BFC as substrate at 100 uM after 30 mins in presence of NADPH and cytochrome b5. The format is ADME. The following applies: probe BFC.
T6 sequence (P08684 whole entry): as the sequence (P08684 whole entry) above
Data set [14] deals with T6, CYP3A4. Put plainly: Inhibition of human His-tagged CYP3A4 expressed in Escherichia coli TOPP3 using BFC as substrate at 100 uM after 30 mins by spectrophotometry in presence of NADPH and cytochrome b5 relative to control. The format is ADME. The following applies: probe BFC.
For data set [15], the target named is T2, Cytochrome P450 3A4. Put plainly: Inhibition of human His-tagged CYP3A4 expressed in Escherichia coli TOPP3 using BFC as substrate assessed as unmodified heme at 100 uM after 30 mins by HPLC analysis in presence of NADPH and cytochrome b5. The format is ADME. Particulars: 0.5 h.
The target of data set [16] is T6, CYP3A4. As to the kind of experiment: Inhibition of human His-tagged CYP3A4 expressed in Escherichia coli TOPP3 using BFC as substrate assessed as residual activity by fluorescence assay in presence of cytochrome b5. The format is ADME. Particulars: probe BFC.
For data set [17], the target named is T6, CYP3A4. As to the kind of experiment: Inhibition of human His-tagged CYP3A4 expressed in Escherichia coli TOPP3 using BFC as substrate assessed as residual activity after 10 mins by fluorescence assay in presence of NADPH and cytochrome b5 relative to control. The format is ADME. Particulars: probe BFC, read-out: Activity.
The target in data set [18] is T6, CYP3A4. As to the kind of experiment: Inhibition of human His-tagged CYP3A4 expressed in Escherichia coli TOPP3 using BFC as substrate assessed as residual activity after 20 mins by fluorescence assay in presence of NADPH and cytochrome b5 relative to control. The following applies: probe BFC, read-out: Activity. The format is ADME.
The target in data set [19] is T6, CYP3A4. Put plainly: Inhibition of human His-tagged CYP3A4 expressed in Escherichia coli TOPP3 using BFC as substrate assessed as residual activity after 30 mins by fluorescence assay in presence of NADPH and cytochrome b5 relative to control. The format is ADME. The following applies: probe BFC, read-out: Activity.
The target in data set [20] is T1, CYP3A5. As to the kind of experiment: Inhibition of human His-tagged CYP3A5 expressed in Escherichia coli TOPP3 using BFC as substrate assessed as residual activity after 10 mins by fluorescence assay in presence of NADPH and cytochrome b5 relative to control. Particulars: probe BFC, read-out: Activity. The format is ADME.
Data set [21] concerns the target T1, CYP3A5. As to the kind of experiment: Inhibition of human His-tagged CYP3A5 expressed in Escherichia coli TOPP3 using BFC as substrate assessed as residual activity after 20 mins by fluorescence assay in presence of NADPH and cytochrome b5 relative to control. The format is ADME. The following applies: probe BFC, read-out: Activity.
The target in data set [22] is T1, CYP3A5. Put plainly: Inhibition of human His-tagged CYP3A5 expressed in Escherichia coli TOPP3 using BFC as substrate assessed as residual activity after 30 mins by fluorescence assay in presence of NADPH and cytochrome b5 relative to control. The format is ADME. Particulars: probe BFC, read-out: Activity.
Data set [23] concerns the target T2, Cytochrome P450 3A4. As to the kind of experiment: Inhibition of human His-tagged CYP3A4 expressed in Escherichia coli TOPP3 using BFC as substrate at 100 uM after 30 mins by spectrophotometry in presence of cytochrome b5. The format is ADME. Particulars: 0.5 h.
Data set [24] has as its target T6, CYP3A4. Put plainly: Ratio of Kinact to Ki for CYP3A4 (unknown origin). The format is ADME.

For orientation: Cmax means the maximum level reached in the sampled fluid or tissue. As usually defined, the inhibition is the share of the control response that was lost under treatment. Usually kinact/KI stands for the second-order rate constant of inactivation.

T1 sequence (P20815 whole entry): as the sequence (P20815 whole entry) above

In the case of `O=C(Nc1ccc(OC(F)(F)F)cc1)c1sccc1NCc1ccnc2ccccc12` [OSI-930], the activity in data set [1] and in [16] was 100% each time. Besides, the “inhibition (INH)” value was “Active” in data set [2]; “Active” in data set [3]; “Not Active” in data set [5]; “Not Active” in data set [6]; “Not Active” in [7]; “Not Active” in [8]. Besides, the “inhibition (INH)” value in data set [9] is given as “Not Active”; in data set [10], “Not Active”; in [11], “Dose-dependent effect”; in [12], “tde”; in data set [15] it was “Active”; in data set [23] it was “Not Active”. This compound also yielded a peak concentration (Cmax) in [4] of 1700 nM. In addition, the figures for the inhibition at 0.5 h, 100 µM in [13] and in data set [14] were 75% and 70%, respectively. In addition, the activity at 10 min turned out to be 71% in data set [17] and 113% in data set [20]. The activity at 20 min in data set [18] was determined as 50%; in data set [21], 109%. The activity at 0.5 h worked out at 39% in [19] and 98% in data set [22].
With `CC/C(=C(\c1ccccc1)c1ccc(OCCN(C)C)cc1)c1ccccc1` [TAMOXIFEN], the inactivation efficiency (kinact/KI) in [24] is 333 M⁻¹ s⁻¹.
On the same count and under the same terms, as for `C#C[C@]1(O)CC[C@H]2[C@@H]3CCc4cc(O)ccc4[C@H]3CC[C@@]21C` [ETHINYL ESTRADIOL], the figure is 667 M⁻¹ s⁻¹; as for `CC(C)=CCC/C(C)=C/COc1c2ccoc2cc2oc(=O)ccc12` [BERGAMOTTIN], 667 M⁻¹ s⁻¹.
On the same count and under the same terms, as for `CC#C[C@]1(O)CC[C@H]2[C@@H]3CCC4=CC(=O)CCC4=C3[C@@H](c3ccc(N(C)C)cc3)C[C@@]21C` [MIFEPRISTONE], the figure is 333 M⁻¹ s⁻¹.
